Measured values: ChEMBL document CHEMBL1201862, “PubChem BioAssay data set” (2004)
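Growth conditions: 96-well plates. Treatment: test compound, 48 hours, 5 concentrations. Analysis: linear interpolation between bracketing concentrations; unreached endpoints set to highest concentration. Here, GI50 denotes the concentration required for 50% inhibition of growth.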 Active and inactive are the calls of the source. Rule as the data show it: active = GI50 up to about 1.1 µM and inactive = higher.

Legend:
Experiment in all cases: NCI tumour cell line growth inhibition, 48 h
[1] = system: 786-0
[2] = system: A498
[3] = system: A549
[4] = system: ACHN
[5] = system: CAKI-1
[6] = system: CCRF-CEM
[7] = system: COLO 205
[8] = system: DU-145
[9] = system: EKVX
[10] = system: HCC 2998
[11] = system: HCT-116
[12] = system: HCT-15
[13] = system: HL-60
[14] = system: HOP-62
[15] = system: HOP-92
[16] = system: HT-29
[17] = system: Hs-578T
[18] = system: IGROV-1
[19] = system: KM12
[20] = system: LOX IMVI
[21] = system: M14
[22] = system: MCF7
[23] = system: MDA-MB-231
[24] = system: MDA-N
[25] = system: MOLT-4
[26] = system: Malme-3M
[27] = system: NCI-H226
[28] = system: NCI-H23
[29] = system: NCI-H460
[30] = system: NCI-H522
[31] = system: NCI/ADR-RES
[32] = system: OVCAR-3
[33] = system: OVCAR-4
[34] = system: OVCAR-5
[35] = system: OVCAR-8
[36] = system: PC-3
[37] = system: RXF 393
[38] = system: SF-268
[39] = system: SF-295
[40] = system: SF-539
[41] = system: SK-MEL-28
[42] = system: SK-MEL-2
[43] = system: SK-MEL-5
[44] = system: SK-OV-3
[45] = system: SN12C
[46] = system: SNB-19
[47] = system: SR
[48] = system: SW-620
[49] = system: T47D
[50] = system: TK-10
[51] = system: UACC-257
[52] = system: UACC-62

Measured: GI50

CSC(SC)=C(C(=O)O)P(=O)(O)O
inactive: [1] > 100 µM | [2] > 100 µM | [3] > 100 µM | [4] > 100 µM | [5] > 100 µM | [6] > 100 µM | [7] > 100 µM | [8] > 100 µM | [9] > 100 µM | [10] > 100 µM | [11] > 100 µM | [13] > 100 µM | [14] > 100 µM | [15] > 100 µM | [16] > 100 µM | [17] > 100 µM | [18] > 100 µM | [19] > 100 µM | [20] > 100 µM | [21] > 100 µM | [22] > 100 µM | [23] > 100 µM | [24] > 100 µM | [25] > 100 µM | [26] > 100 µM | [27] > 100 µM | [28] > 100 µM | [29] > 100 µM | [30] > 100 µM | [31] > 100 µM | [32] > 100 µM | [33] > 100 µM | [34] > 100 µM | [35] > 100 µM | [36] > 100 µM | [37] > 100 µM | [38] > 100 µM | [39] > 100 µM | [40] > 100 µM | [41] > 100 µM | [42] > 100 µM | [43] > 100 µM | [44] > 100 µM | [45] > 100 µM | [46] > 100 µM | [47] > 100 µM | [48] > 100 µM | [49] > 100 µM | [50] > 100 µM | [51] > 100 µM | [52] > 100 µM
> 100 µM: [12]
